Results on four molecules are retold here after patent publication US11236122B2, “Triterpene amine derivatives” (DFH THERAPEUTICS, priority 2018, dated 2022).

This assay has as its system panel of HIV-1 isolates in human PBMCs. Briefly: PBMC antiviral assay against a panel of HIV-1 isolates (RT activity). The format is cell-based. As to the method:
Antiviral assays. To produce HIV-1 stocks, 293T cells were transfected with WT pNL4-3 or the SP1-V7A derivative and culture supernatants were collected 24 h post transfection. RT-normalized virus supernatants were used to infect MT-4 cells at room temperature for 30 min. Cells were then cultured in the presence of serial dilutions of compounds. At 4 d post-infection, the culture supernatants were subjected to RT assay to monitor viral replication. The 50% inhibitory concentrations (IC50s) were defined as compound concentrations that reduced RT levels to 50% those measured in the absence of inhibitor (DMSO only controls) using GraphPad Prism 6 software. The IC50s in primary peripheral blood mononuclear cells (PBMCs) were calculated with a multi-clade panel of HIV-1 isolates by Southern Research Institute (Frederick, Md.). The PBMCs were stimulated with phytohemagglutinin (PHA) and IL-2 prior to use in the antiviral assays.
Virus Isolates. Compound evaluation against a panel of HIV-1 isolates were performed by the Southern Research Institute (SRI). The viruses were chosen to include one isolate from each of the seven HIV-1 Group M envelope subtypes A, B, C, D, E, F, and G, as well as isolates from HIV-1 Groups O and N. In addition, various drug resistant HIV-1 isolates were included for evaluation. The HIV-1 isolates selected include CCR5-tropic and CXCR4-tropic isolates. Unless otherwise noted, all virus isolates were obtained from the NIH AIDS Research and Reference Reagent Program. Virus isolate 1022-48 was obtained from Dr. William A. Schief of Merck Research Laboratories. MDR769 and MDR807 were obtained from Dr. Thomas C. Merigan of Stanford University. A low passage stock of each virus was prepared using fresh human PBMCs and stored in liquid nitrogen. Pre-titered aliquots of each virus were removed from the freezer and thawed rapidly to rt in a biological safety cabinet immediately before use.
Human PBMC Preparation. Fresh human PBMCs were isolated from screened donors, seronegative for HIV and HBV (Biological Specialty Corporation, Colmar, Pa.). Cells were pelleted/washed 2-3 times by low speed centrifugation and resuspension in Dulbecco's phosphate buffered saline (PBS) to remove contaminating platelets. The leukophoresed blood was then diluted 1:1 with PBS and layered over 14 mL of Ficoll-Hypaque density gradient (Lymphocyte Separation Medium, Cell Grow #85-072-CL, density 1.078+/−0.002 g/mL) in a 50 mL centrifuge tube and then centrifuged for 30 min at 600×g. Banded PBMCs were gently aspirated from the resulting interface and subsequently washed twice with PBS by low speed centrifugation. After the final wash, cells were enumerated by trypan blue exclusion and re-suspended at 1×10^6 cells/mL in RPMI 1640 supplemented with 15% Fetal Bovine Serum (FBS), 2 mM L-glutamine, 100 U/mL penicillin, […] streptomycin, and 4 μg/mL Phytohemagglutinin (PHA; Sigma, St. Louis, Mo.; cat #L1668). The cells were allowed to incubate for 48-72 h at 37° C. After incubation, PBMCs were centrifuged and resuspended in RPMI 1640 with 15% FBS, L-glutamine, penicillin, streptomycin, non-essential amino acids (MEM/NEAA; Hyclone; cat #SH30238.01), and 20 U/mL recombinant human IL-2 (R&D Systems Inc., Minneapolis, Minn.; cat #202IL). PBMCs were maintained in this medium at a concentration of 1-2×10^6 cells/mL, with twice-weekly medium changes until they were used in the assay protocol. Monocytes-derived-macrophages were depleted from the culture as the result of adherence to the tissue culture flask.
PBMC Assay. For the standard PBMC assay, PHA stimulated cells from at least two normal donors were pooled (mixed together), diluted in fresh medium to a final concentration of 1×10^6 cells/mL, and plated in the interior wells of a 96 well round bottom microplate at 50 μL/well (5×10^4 cells/well) in a standard formate developed by the Infectious Disease Research Department of the SRI. […]

Setting [1] is: Human immunodeficiency virus 1, IIIB, PBMC, isolate A17 (IIIB).
Setting [2] is: Human immunodeficiency virus 1, NL43, PBMC, isolate NL4-3, PBMC.
The mark [3] stands for this setting: Human immunodeficiency virus 1, NL43, PBMC, isolate NL4-3 gp41(36G) N42T, N43K, PBMC.
The mark [4] stands for this setting: Human immunodeficiency virus 1, PBMC, isolate 92BR030, PBMC.
[5] abbreviates: Human immunodeficiency virus 1, PBMC, isolate 92RW009, PBMC.
The mark [6] stands for this setting: Human immunodeficiency virus 1, PBMC, isolate 92UG001, PBMC.
Where [7] appears, read: Human immunodeficiency virus 1, PBMC, isolate 93BR020, PBMC.
Where [8] appears, read: Human immunodeficiency virus 1, PBMC, isolate 93BR029, PBMC.
Setting [9] is: Human immunodeficiency virus 1, PBMC, isolate 93IN101, PBMC.
The mark [10] stands for this setting: Human immunodeficiency virus 1, PBMC, isolate 99UGA07412MI, PBMC.
[11] abbreviates: Human immunodeficiency virus 1, PBMC, isolate 1022-48, PBMC.
The mark [12] stands for this setting: Human immunodeficiency virus 1, PBMC, isolate 1064-52, PBMC.
Where [13] appears, read: Human immunodeficiency virus 1, PBMC, isolate 4736_4 (NL4-3), PBMC.
[14] abbreviates: Human immunodeficiency virus 1, PBMC, isolate BCF02, PBMC.
The mark [15] stands for this setting: Human immunodeficiency virus 1, PBMC, isolate CMU02, PBMC.
Setting [16] is: Human immunodeficiency virus 1, PBMC, isolate JV1083, PBMC.
Where [17] appears, read: Human immunodeficiency virus 1, PBMC, isolate MDR769, PBMC.
Setting [18] is: Human immunodeficiency virus 1, PBMC, isolate YBF30, PBMC.

Counter-ions that a name gives are not always drawn.

As usually defined, the IC50 is the point on the concentration scale where inhibition reaches its midpoint. As for `C=C(C)[C@@H]1CC[C@]2(CCNCCN3CCN(S(C)(=O)=O)CC3)CC[C@]3(C)[C@H](CC[C@@H]4[C@@]5(C)CC[C@H](OC(=O)CC(C)(C)C(=O)O)C(C)(C)[C@@H]5CC[C@]43C)[C@@H]12` [Compound 51ff, (3β)-17-[2-[[2-[4-(Methylsulfonyl)piperazin-1-yl]ethyl]amino]ethyl]-28-norlup-20(29)-en-3-ol, 3-(1-Hydrogen 2,2-Dimethylbutanedioate)], the IC50 is, setting by setting: under setting [1], 1.8 nM; under setting [2], 0.8 nM; under setting [3], 1.4 nM; under setting [4], greater than 1000 nM; under setting [5], 39.4 nM; under setting [6], less than 0.15 nM. For the same molecule, the IC50 runs as follows: under setting [7], 2.4 nM; under setting [8], 1.1 nM; under setting [9], 14.2 nM; under setting [10], 4.3 nM; under setting [11], 1.3 nM; under setting [12], 0.7 nM. Further, the IC50 is 0.8 nM under setting [13]; 2.8 nM under setting [14]; 217 nM under setting [15]; 460 nM under setting [16]; 1.7 nM under setting [17]; 3.6 nM under setting [18].

In turn, `C=C(C)[C@@H]1CC[C@]2(CCNC3CCN(CCO)CC3)CC[C@]3(C)[C@H](CC[C@@H]4[C@@]5(C)CC[C@H](OC(=O)CC(C)(C)CC(=O)O)C(C)(C)[C@@H]5CC[C@]43C)[C@@H]12` [Compound 51f, (3β)-17-[2-[[1-(2-Hydroxyethyl)piperidin-4-yl]amino]ethyl]-28-norlup-20(29)-en-3-ol, 3-(Hydrogen 3,3-Dimethylpentanedioate), Bis(trifluoroacetate) Salt] showed an IC50 under setting [1] of 8.2 nM; an IC50 under setting [2] of 4 nM; an IC50 under setting [3] of 5.6 nM; an IC50 under setting [4] of 100 nM; an IC50 (Human immunodeficiency virus 1, PBMC, isolate 92UG031, PBMC) greater than 1000 nM; an IC50 under setting [8] of 5.1 nM. The IC50 came out at 89 nM under setting [9]; 8.2 nM under setting [10]; 18.9 nM under setting [11]; 3.3 nM under setting [13]; 4.6 nM under setting [14]; 316 nM under setting [15]. Besides, the IC50 by setting is: under setting [16], 477 nM; under setting [17], 5.9 nM; (Human immunodeficiency virus 1, PBMC, isolate MDR807, PBMC) greater than 1000 nM; under setting [18], 14.8 nM.

In the case of `C=C(C)[C@@H]1CC[C@]2(CCNCCN3CCN(Cc4ccccc4)CC3)CC[C@]3(C)[C@H](CC[C@@H]4[C@@]5(C)CC[C@H](OC(=O)CC(C)(C)C(=O)O)C(C)(C)[C@@H]5CC[C@]43C)[C@@H]12` [Compound 51hh, (3β)-17-[2-[[2-[4-(Phenylmethyl)piperazin-1-yl]ethyl]amino]ethyl]-28-norlup-20(29)-en-3-ol, 3-(1-Hydrogen 2,2-Dimethylbutanedioate)], the IC50 runs as follows: under setting [1], 6.1 nM; under setting [2], 1.4 nM; under setting [3], 3.8 nM; under setting [4], greater than 1000 nM; under setting [5], 10.4 nM; under setting [6], 1.2 nM. For the same molecule, the IC50 reads like this: under setting [7], 3 nM; under setting [8], 4.1 nM; under setting [9], 5.6 nM; under setting [10], 8 nM; under setting [11], 3.2 nM; under setting [12], 1.7 nM. Further, the IC50 worked out at 1.4 nM under setting [13]; 3.8 nM under setting [14]; 11.1 nM under setting [15]; 17.1 nM under setting [16]; 4.4 nM under setting [17]; 132 nM under setting [18]. Besides, the IC50 (isolate CMU02, PBMC) came out at 7.1 nM.

Take `C=C(C)[C@@H]1CC[C@]2(CCNCCN3CCS(=O)(=O)CC3)CC[C@]3(C)[C@H](CC[C@@H]4[C@@]5(C)CC[C@H](OC(=O)CC(C)(C)C(=O)O)C(C)(C)[C@@H]5CC[C@]43C)[C@@H]12` [Compound 51ee, (3β)-17-[[[2-[2-(1,1-Dioxothiomorpholin-4-yl)]Ethyl]Amino]Ethyl]-28-norlup-20(29)-en-3-ol, 3-(1-Hydrogen 2,2-Dimethylbutanedioate)]: the IC50 is 1.4 nM under setting [1]; 0.8 nM under setting [2]; 1.3 nM under setting [3]; 455 nM under setting [4]; 20.7 nM under setting [5]; 0.4 nM under setting [6]. Also, the IC50 turned out to be 1.8 nM under setting [7]; 0.9 nM under setting [8]; 2.7 nM under setting [9]; 2.2 nM under setting [10]; 1.1 nM under setting [11]; 0.5 nM under setting [12]. The IC50 under setting [13] was found to be 1 nM; the IC50 under setting [14] amounted to 1.7 nM; the IC50 under setting [15] amounted to 110 nM; 126 nM corresponded to half-maximal inhibition under setting [16] (IC50); the IC50 under setting [17] was 1.4 nM; the IC50 under setting [18] came out at 8.4 nM.
